Laboratory results published in patent US12673975B2, “Cyclic peptide, cell scaffold material, cell separating material, and medium” (FUJIFILM Corporation, priority 2019, dated 2026).
Where two headings read alike, the source gives them in different places. Starred links: 1 amine or outer side, 2 acyl side, 3 side chain; linkers in the order of their positions; H or OH if unused. Positions of bridges follow the written chain, without caps; N, C: chain ends. Non-standard residues stand in square brackets, D forms with d. Residues, ends and D or L forms follow the SMILES beside them. Pen = CC(C)(S)[C@H](N)C(=O)O; hCys = N[C@@H](CCS)C(=O)O; Dab = NCC[C@H](N)C(=O)O; Dap = NC[C@H](N)C(=O)O; X1 = O=C(C[*:2])[*:1]; X2 = O=C(C[*:1])[*:2]

How the values were obtained:
[1] = Evaluation of molecule stability (alkali treatment, residual rate by LC/MS); assay type: physicochemical; conditions: for Stability (molecule stability, residual rate of the cyclic peptide rank): alkali treatment, residual rate by LC/MS
Procedure, shortened: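 500 μM aqueous cyclic peptide mixed with an equal volume of 1 M NaOH and held 3 h at 15 °C. Residual rate is total LC/MS peak area after treatment relative to untreated (100%), using a C18 column, pH 3 ammonium formate/acetonitrile gradient, 45 °C, ESI±.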

human integrin αvβ5 = human integrin αvβ5 (Homo sapiens, UniProt P06756+P18084); test: Evaluation of integrin binding property (surface plasmon resonance, Biacore 3000, immobilized cyclic peptide)
human integrin αvβ5, sequence (P06756 31-1048): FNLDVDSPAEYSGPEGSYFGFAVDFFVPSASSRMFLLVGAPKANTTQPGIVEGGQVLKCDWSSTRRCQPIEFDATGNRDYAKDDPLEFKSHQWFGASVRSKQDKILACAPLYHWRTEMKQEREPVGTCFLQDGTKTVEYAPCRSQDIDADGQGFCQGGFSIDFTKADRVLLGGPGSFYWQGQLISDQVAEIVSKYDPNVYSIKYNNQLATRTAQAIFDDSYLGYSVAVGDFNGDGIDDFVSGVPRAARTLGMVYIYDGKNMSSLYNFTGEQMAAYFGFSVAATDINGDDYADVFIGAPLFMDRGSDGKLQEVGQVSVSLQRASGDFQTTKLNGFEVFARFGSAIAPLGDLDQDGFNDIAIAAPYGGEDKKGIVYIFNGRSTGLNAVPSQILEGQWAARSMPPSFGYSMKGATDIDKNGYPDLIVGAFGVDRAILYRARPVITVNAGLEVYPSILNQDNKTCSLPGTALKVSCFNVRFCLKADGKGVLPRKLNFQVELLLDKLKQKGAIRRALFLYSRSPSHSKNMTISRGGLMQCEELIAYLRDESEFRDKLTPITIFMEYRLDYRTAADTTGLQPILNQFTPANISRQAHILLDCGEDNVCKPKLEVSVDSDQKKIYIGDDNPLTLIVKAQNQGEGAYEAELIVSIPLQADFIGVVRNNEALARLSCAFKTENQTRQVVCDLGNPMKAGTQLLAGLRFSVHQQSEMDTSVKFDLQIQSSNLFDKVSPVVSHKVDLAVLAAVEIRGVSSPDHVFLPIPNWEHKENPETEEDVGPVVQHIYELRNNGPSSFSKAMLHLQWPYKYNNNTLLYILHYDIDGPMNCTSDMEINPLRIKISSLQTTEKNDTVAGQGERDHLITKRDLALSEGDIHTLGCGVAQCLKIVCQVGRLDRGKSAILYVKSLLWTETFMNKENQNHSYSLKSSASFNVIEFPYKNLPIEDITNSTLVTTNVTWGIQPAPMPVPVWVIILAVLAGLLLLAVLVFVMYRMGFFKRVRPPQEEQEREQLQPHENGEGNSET
human integrin αvβ5, sequence (P18084 24-799): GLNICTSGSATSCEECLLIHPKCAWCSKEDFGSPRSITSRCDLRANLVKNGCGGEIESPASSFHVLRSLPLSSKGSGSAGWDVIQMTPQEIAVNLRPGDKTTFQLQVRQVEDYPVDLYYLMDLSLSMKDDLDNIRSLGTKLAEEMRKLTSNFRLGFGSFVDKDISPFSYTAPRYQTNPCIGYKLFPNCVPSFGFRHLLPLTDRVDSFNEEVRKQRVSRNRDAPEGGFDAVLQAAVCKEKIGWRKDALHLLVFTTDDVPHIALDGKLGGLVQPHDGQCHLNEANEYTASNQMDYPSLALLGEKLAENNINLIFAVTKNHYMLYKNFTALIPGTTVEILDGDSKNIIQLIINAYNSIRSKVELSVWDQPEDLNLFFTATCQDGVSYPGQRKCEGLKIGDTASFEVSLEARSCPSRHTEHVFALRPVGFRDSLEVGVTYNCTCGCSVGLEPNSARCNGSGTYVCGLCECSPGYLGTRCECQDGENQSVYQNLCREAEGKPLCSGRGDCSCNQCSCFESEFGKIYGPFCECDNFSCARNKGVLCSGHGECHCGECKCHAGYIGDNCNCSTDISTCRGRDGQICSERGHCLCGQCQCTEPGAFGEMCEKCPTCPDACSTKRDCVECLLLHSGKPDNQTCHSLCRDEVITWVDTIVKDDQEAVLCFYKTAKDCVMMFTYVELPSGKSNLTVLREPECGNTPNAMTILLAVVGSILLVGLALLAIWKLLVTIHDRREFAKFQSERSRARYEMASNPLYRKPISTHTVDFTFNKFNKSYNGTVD
Procedure, shortened: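 SPR with cyclic peptide amine-coupled via EDC/NHS to a CM5 chip, blank channel as reference. Integrin αvβ5 at 30, 100, 300 and 1,000 nM injected 10 min at 25 °C in HEPES buffer pH 7.4 with 5 mM MgCl2, 30 min buffer flow, EDTA regeneration; Kd from reference-subtracted signals, graded by category.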

[2] = surface plasmon resonance, immobilized cyclic peptide, human integrin αvβ5, read-out: Binding activity (integrin binding property, dissociation constant rank)

With `CC[C@H](C)[C@@H]1NC(=O)[C@@H](NC(=O)CNC(=O)[C@H](CCCCN)NC(=O)[C@H](CCCCN)NC(=O)[C@@H](N)CCCCN)CCCCNC(=O)CSC[C@@H](C(=O)N[C@@H](C)C(=O)O)NC(=O)[C@H](CCCNC(=N)N)NC(=O)[C@H](Cc2ccccc2)NC(=O)[C@H]([C@@H](C)O)NC(=O)[C@H](CC(=O)O)NC(=O)CNC(=O)[C@H](CCCNC(=N)N)NC(=O)[C@@H]2CCCN2C1=O` [Cyclic peptide 140, KKKG(Lys(acetyl))IPRGDTFR(C)A] (H-KKKGKIPRGDTFRCA-OH; linker 5-14 via X1) the “Stability (molecule stability, residual rate of the cyclic peptide rank)” value [1] was “C (The residual rate of the cyclic peptide is 30% or more and less than 50%.)” and the Kd (human integrin αvβ5; [2]) was 50 to 100 nM.

For `CC[C@H](C)[C@@H]1NC(=O)[C@@H](NC(=O)CNC(=O)[C@H](CCCCN)NC(=O)[C@H](CCCCN)NC(=O)[C@@H](N)CCCCN)CCSCC(=O)NCC[C@@H](C(=O)N[C@@H](C)C(=O)O)NC(=O)[C@H](C)NC(=O)[C@H](Cc2ccccc2)NC(=O)[C@H]([C@@H](C)O)NC(=O)[C@H](CC(=O)O)NC(=O)CNC(=O)[C@H](CCCNC(=N)N)NC(=O)[C@@H]2CCCN2C1=O` [Cyclic peptide 86, KKKG-(Hcy)-IPRGDTFA(Dab(acetyl))A] (H-KKKG[hCys]IPRGDTFA[Dab]A-OH; linker 5-14 via X2), the “Performance evaluation: Stability (residual rate of cyclic peptide after alkali treatment)” value ([1]; 500 μM peptide aqueous solution plus equivalent of 1 M sodium hydroxide, 15° C., 3 hours, LC/MS peak area) was “A (The residual rate of the cyclic peptide is 70% or more.)” and the Kd (human integrin αvβ5; SPR, 25° C., HEPES buffer with 5 mM magnesium chloride, integrin 30-1,000 nM, read-out: Performance evaluation: Binding activity (dissociation constant between the cyclic peptide and human integrin αvβ5)) was less than 50 nM.

In the case of `CC[C@H](C)[C@@H]1NC(=O)[C@@H](NC(=O)CNC(=O)[C@H](CCCCN)NC(=O)[C@H](CCCCN)NC(=O)[C@@H](N)CCCCN)CCSCC(=O)NC[C@@H](C(=O)N[C@@H](C)C(=O)O)NC(=O)[C@H](CCCNC(=N)N)NC(=O)[C@H](Cc2ccccc2)NC(=O)[C@H]([C@@H](C)O)NC(=O)[C@H](CC(=O)O)NC(=O)CNC(=O)[C@H](CCCNC(=N)N)NC(=O)[C@@H]2CCCN2C1=O` [Cyclic peptide 114, KKKG-(Hcy)-IPRGDTFR(Dap(acetyl))A] (H-KKKG[hCys]IPRGDTFR[Dap]A-OH; linker 5-14 via X2), the “Stability (molecule stability, residual rate of the cyclic peptide rank)” value [1] is reported as “B (The residual rate of the cyclic peptide is 50% or more and less than 70%.)” and the Kd (human integrin αvβ5; [2]) is reported as less than 50 nM.

With `CC[C@H](C)[C@@H]1NC(=O)[C@@H](NC(=O)CNC(=O)[C@H](CCCCN)NC(=O)[C@H](CCCCN)NC(=O)[C@@H](N)CCCCN)CNC(=O)CSC(C)(C)[C@@H](C(=O)N[C@@H](C)C(=O)O)NC(=O)[C@H](CCCNC(=N)N)NC(=O)[C@H](Cc2ccccc2)NC(=O)[C@H]([C@@H](C)O)NC(=O)[C@H](CC(=O)O)NC(=O)CNC(=O)[C@H](CCCNC(=N)N)NC(=O)[C@@H]2CCCN2C1=O` [Cyclic peptide 132, KKKG(Dap(acetyl))IPRGDTFR-(Pen)-A] (H-KKKG[Dap]IPRGDTFR[Pen]A-OH; linker 5-14 via X1) the “Stability (molecule stability, residual rate of the cyclic peptide rank)” value [1] was “A (The residual rate of the cyclic peptide is 70% or more.)” and the Kd (human integrin αvβ5; [2]) was less than 50 nM.

With `CC(C)[C@@H]1NC(=O)[C@@H](NC(=O)[C@H](CCCCN)NC(=O)[C@H](CCCCN)NC(=O)[C@@H](N)CCCCN)CCSCC(=O)NCC[C@@H](C(=O)N[C@@H](C)C(=O)O)NC(=O)[C@H](C)NC(=O)[C@H](Cc2ccccc2)NC(=O)[C@H]([C@@H](C)O)NC(=O)[C@H](CC(=O)O)NC(=O)CNC(=O)[C@H](CCCNC(=N)N)NC(=O)[C@@H]2CCCN2C1=O` [Cyclic peptide 165, KKK-(Hcy)-VPRGDTFA(Dab(acetyl))A] (H-KKK[hCys]VPRGDTFA[Dab]A-OH; linker 4-13 via X2) the “Stability (molecule stability, residual rate of the cyclic peptide rank)” value [1] was “A (The residual rate of the cyclic peptide is 70% or more.)” and the Kd (human integrin αvβ5; [2]) was less than 50 nM.
